Measurements reported in the supplement of paper PMC12463676, “Small-molecule dissolution of stress granules by redox modulation benefits ALS models” (Nature Chemical Biology, 2025).

How the values were obtained:
lipoamide = compound: NC(=O)CCCCC1CCSS1 [lipoamide]; test: thermal stability z-score vs DMSO; higher = more thermally stabilized by treatment; settings: HeLa, lipoamide concentration 100 µM
Method: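 Cellular thermal proteome profiling in HeLa cells. Cells were treated with 100 µM lipoamide for 1 h, with or without 1 mM arsenate for a further 1 h, then heated to ten temperatures (37-66.3 °C), and soluble protein was quantified by TMT mass spectrometry relative to 0.1% DMSO controls. The thermal stability score (sum of log2 fold changes minus the abundance score) was transformed to a z-score; mean of n = 3 experiments.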

potassium arsenate = compound: O=[As]([O-])(O)O.[K+] [potassium arsenate]; test: as above; settings: HeLa; arsenate concentration 1 mM
Method: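 Cellular thermal proteome profiling in HeLa cells treated with 1 mM arsenate for 1 h (DMSO pretreatment), heated to ten temperatures (37-66.3 °C). Soluble protein was quantified by TMT mass spectrometry relative to DMSO controls; the thermal stability score was transformed to a z-score; mean of n = 3 experiments.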

[1] = arsenate co-treatment: 1 mM arsenate 1 h
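Further: each temperature applied for 3 min, abundance score taken as mean log2 fold change at the two lowest temperatures, z-score obtained by mean subtraction and division by SD.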

Chain of UniProt Q13191 (Q13191 whole entry): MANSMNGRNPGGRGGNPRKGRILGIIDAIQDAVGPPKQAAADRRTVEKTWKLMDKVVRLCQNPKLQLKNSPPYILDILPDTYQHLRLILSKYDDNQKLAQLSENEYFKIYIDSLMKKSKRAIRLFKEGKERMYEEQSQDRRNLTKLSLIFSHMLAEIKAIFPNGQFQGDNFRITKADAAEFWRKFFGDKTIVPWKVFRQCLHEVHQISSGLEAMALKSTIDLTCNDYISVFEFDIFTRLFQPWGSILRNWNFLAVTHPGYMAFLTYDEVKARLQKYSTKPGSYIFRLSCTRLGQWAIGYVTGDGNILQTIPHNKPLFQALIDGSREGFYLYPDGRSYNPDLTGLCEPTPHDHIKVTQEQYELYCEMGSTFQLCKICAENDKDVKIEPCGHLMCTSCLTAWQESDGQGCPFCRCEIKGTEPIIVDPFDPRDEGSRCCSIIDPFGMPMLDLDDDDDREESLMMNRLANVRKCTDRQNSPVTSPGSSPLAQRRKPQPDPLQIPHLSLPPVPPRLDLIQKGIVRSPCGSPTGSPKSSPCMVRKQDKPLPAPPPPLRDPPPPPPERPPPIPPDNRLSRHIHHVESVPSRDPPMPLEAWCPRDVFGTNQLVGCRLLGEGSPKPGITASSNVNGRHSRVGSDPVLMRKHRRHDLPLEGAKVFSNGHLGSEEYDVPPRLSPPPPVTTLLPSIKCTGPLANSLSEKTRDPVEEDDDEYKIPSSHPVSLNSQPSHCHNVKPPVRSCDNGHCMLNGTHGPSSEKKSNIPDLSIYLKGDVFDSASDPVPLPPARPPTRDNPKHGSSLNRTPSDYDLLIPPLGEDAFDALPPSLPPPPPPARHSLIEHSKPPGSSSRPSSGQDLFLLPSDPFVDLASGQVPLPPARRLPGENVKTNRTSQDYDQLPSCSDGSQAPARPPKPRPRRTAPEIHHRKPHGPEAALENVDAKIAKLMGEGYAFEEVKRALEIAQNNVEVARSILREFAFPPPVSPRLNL
Chain of UniProt Q01968 (Q01968 whole entry): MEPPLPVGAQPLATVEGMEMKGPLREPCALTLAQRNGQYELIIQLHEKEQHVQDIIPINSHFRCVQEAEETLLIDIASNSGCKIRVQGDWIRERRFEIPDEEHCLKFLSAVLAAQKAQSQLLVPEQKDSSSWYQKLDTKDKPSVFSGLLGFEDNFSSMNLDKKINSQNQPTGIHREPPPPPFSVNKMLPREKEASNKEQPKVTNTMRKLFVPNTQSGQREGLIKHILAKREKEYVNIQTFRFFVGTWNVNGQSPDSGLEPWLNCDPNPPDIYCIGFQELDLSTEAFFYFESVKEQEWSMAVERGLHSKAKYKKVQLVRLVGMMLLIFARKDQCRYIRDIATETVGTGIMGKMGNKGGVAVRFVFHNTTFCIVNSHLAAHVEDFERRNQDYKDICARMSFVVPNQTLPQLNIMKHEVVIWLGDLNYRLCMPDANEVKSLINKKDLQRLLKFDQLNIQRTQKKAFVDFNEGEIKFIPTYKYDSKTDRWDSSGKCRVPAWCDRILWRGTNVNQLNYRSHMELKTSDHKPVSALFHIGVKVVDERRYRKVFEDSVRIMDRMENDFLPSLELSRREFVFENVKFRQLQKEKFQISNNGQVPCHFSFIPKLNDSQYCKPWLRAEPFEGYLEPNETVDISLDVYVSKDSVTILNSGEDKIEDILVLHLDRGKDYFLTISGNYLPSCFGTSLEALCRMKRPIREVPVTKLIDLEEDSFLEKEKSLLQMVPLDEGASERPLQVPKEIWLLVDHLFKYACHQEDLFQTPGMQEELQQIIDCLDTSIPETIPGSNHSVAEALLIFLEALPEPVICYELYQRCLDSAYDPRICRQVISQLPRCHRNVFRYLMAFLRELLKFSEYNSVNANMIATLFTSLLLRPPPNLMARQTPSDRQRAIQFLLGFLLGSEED
Chain of UniProt P78356 (P78356 whole entry): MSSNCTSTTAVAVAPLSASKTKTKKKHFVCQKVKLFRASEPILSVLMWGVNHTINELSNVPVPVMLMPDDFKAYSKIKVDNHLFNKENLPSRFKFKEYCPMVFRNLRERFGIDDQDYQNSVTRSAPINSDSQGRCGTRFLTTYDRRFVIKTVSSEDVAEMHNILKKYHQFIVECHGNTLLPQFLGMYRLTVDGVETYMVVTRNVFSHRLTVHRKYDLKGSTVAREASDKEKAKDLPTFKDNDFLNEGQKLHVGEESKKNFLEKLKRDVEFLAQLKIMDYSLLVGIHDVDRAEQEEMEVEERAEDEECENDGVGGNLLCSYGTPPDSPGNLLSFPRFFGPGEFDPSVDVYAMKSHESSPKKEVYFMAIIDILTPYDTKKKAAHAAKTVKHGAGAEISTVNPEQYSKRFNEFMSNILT
Chain of UniProt Q9NRA2 (Q9NRA2 whole entry): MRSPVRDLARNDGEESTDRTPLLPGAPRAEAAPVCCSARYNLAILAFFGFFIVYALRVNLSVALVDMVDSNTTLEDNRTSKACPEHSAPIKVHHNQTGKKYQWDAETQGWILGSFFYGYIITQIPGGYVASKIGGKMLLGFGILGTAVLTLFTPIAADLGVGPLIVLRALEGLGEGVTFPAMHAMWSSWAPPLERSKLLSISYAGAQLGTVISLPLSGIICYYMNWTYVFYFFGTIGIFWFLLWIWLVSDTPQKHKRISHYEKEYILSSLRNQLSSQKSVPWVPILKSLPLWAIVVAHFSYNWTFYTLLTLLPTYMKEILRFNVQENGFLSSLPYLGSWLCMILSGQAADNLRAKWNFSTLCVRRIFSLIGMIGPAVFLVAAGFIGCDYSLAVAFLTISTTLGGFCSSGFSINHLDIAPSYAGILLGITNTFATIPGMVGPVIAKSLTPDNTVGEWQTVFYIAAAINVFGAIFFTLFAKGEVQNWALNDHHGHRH
Chain of UniProt O95453 (O95453 whole entry): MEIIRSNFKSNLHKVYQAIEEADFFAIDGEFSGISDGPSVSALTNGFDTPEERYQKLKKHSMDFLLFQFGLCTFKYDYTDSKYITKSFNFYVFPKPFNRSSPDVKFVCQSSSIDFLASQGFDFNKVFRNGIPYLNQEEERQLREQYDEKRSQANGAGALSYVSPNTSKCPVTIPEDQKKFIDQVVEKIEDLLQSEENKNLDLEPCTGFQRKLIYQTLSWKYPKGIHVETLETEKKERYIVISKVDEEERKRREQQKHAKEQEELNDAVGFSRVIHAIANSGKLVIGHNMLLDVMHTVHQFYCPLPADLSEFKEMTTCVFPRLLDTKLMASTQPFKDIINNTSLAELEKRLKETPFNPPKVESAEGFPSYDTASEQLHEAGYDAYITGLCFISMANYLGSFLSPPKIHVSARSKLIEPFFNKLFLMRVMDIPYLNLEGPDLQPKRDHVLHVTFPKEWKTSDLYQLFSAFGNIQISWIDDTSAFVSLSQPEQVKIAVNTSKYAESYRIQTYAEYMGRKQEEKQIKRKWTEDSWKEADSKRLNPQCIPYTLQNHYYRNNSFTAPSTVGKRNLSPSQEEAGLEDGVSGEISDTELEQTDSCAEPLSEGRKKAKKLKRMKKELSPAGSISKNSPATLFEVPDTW
Chain of UniProt P38935 (P38935 whole entry): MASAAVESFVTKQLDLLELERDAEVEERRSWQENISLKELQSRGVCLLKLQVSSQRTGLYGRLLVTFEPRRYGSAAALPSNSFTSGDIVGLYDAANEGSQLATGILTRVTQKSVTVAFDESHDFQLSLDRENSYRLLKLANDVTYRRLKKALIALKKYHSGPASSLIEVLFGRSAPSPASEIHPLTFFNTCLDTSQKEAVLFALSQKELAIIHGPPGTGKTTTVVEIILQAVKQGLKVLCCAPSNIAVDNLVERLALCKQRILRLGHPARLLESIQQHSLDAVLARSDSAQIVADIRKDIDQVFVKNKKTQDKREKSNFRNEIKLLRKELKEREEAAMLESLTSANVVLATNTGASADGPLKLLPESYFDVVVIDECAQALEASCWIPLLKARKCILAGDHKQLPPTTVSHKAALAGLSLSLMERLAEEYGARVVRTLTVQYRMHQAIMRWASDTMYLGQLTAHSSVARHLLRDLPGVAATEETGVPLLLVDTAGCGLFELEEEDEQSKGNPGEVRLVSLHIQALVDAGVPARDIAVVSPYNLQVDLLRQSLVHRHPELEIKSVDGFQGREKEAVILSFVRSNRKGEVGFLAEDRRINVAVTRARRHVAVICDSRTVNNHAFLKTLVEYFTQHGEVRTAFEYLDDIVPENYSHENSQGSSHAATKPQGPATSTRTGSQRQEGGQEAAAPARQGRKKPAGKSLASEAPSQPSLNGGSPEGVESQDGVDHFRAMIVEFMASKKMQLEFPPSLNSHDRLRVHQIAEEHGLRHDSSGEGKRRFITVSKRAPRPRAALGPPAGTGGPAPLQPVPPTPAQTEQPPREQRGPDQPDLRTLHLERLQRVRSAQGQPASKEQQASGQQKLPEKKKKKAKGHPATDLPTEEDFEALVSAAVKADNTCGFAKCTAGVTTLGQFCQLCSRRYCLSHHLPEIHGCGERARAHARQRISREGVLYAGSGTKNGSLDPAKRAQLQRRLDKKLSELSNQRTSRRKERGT
Chain of UniProt Q13685 (Q13685 whole entry): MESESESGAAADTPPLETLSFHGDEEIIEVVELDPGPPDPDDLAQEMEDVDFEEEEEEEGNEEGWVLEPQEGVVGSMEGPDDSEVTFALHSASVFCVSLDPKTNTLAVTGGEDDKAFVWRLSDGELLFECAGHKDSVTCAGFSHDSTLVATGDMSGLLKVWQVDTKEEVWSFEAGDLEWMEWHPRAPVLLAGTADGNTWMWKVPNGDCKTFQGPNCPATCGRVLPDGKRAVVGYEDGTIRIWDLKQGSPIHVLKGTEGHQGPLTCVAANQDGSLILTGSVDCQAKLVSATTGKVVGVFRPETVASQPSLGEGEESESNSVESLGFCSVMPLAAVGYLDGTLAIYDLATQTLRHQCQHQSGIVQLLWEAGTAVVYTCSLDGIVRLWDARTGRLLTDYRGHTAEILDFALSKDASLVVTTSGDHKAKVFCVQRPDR
Chain of UniProt O60888 (O60888 whole entry): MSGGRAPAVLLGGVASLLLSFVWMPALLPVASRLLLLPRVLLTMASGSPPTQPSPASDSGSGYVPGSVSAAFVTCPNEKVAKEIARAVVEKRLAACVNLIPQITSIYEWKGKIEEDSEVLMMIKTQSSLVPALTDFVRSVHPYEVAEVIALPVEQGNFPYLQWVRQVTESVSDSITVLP

Target	thermal stability z-score (lipoamide; [1])	thermal stability z-score (lipoamide; arsenate co-treatment: none)	thermal stability z-score (potassium arsenate)
MPP5 (UniProt Q8N3R9)	-0.0805	-0.0555	-0.004
TKFC (UniProt Q3LXA3)	0.239	0.23	-0.753
DDX46 (UniProt Q7L014)	0.411	0.501	-1.2
DHX9 (UniProt Q08211)	0.398	1.65	-1.4
CCDC127 (UniProt Q96BQ5)	-0.707	-0.371	-0.192
GCNT2 (UniProt Q8N0V5)	0.367	-0.158	-0.125
NCLN (UniProt Q969V3)	-3.4	-2.85	0.537
HDAC2 (UniProt Q92769)	4.76	4.53	-0.0176
IGHMBP2 (UniProt P38935)	0.0798	0.0388	-0.187
SPRYD4 (UniProt Q8WW59)	2.66	2.54	1.75
PIP4K2B (UniProt P78356)	0.0141	0.0907	0.0439
CBLB (UniProt Q13191)	0.338	-0.251	-0.0258
SNRPA1 (UniProt P09661)	1.91	1.08	0.474
RAD17 (UniProt O75943)	-0.324	-0.278	-0.848
CAMSAP2 (UniProt Q08AD1)	-0.52	-0.353	-1.05
UBAC2 (UniProt Q8NBM4)	-0.594	-0.778	-0.0559
SLC17A5 (UniProt Q9NRA2)	0.265	0.076	-0.982
VASP (UniProt P50552)	0.564	0.923	-0.33
CCAR1 (UniProt Q8IX12)	0.657	0.27	-0.106
ZBTB7A (UniProt O95365)	0.428	-0.495	-1.13
KBTBD4 (UniProt Q9NVX7)	0.389	-0.408	0.259
NUDCD2 (UniProt Q8WVJ2)	0.599	0.779	0.58
DARS (UniProt P14868)	0.186	-0.0144	-0.593
APEX1 (UniProt P27695)	-0.558	0.406	-0.345
CD44 (UniProt P16070)	0.358	0.287	0.197
RPL23 (UniProt P62829)	0.548	-0.122	-0.839
BCR (UniProt P11274)	-0.0665	-0.0479	0.0296
CUTA (UniProt O60888)	1.1	0.709	-0.0462

Target	thermal stability z-score (lipoamide; [1])	thermal stability z-score (lipoamide; arsenate co-treatment: none)	thermal stability z-score (potassium arsenate)
FLNA (UniProt P21333)	0.22	0.544	-0.4
PARN (UniProt O95453)	0.181	-0.273	0.95
KLF16 (UniProt Q9BXK1)	-0.384	0.0662	0.778
SREBF1 (UniProt P36956)	-0.33	0.0707	0.119
FEM1B (UniProt Q9UK73)	0.128	0.146	-1.27
HK2 (UniProt P52789)	-0.636	-0.168	0.715
GNAI3 (UniProt P08754)	0.0735	0.0764	-1.24
TMEM43 (UniProt Q9BTV4)	-3.42	-3.08	0.701
OCRL (UniProt Q01968)	0.142	0.13	0.24
AAMP (UniProt Q13685)	0.409	-0.389	0.924
RMDN1 (UniProt Q96DB5)	0.0143	-0.0301	0.171
ALCAM (UniProt Q13740)	0.558	0.931	0.534
MRPL40 (UniProt Q9NQ50)	0.157	0.0972	-0.0198
RTN4 (UniProt Q9NQC3)	0.244	0.711	0.413
TRAF4 (UniProt Q9BUZ4)	-0.818	-0.748	-4.33
ALG10|ALG10B	0.489	-0.122	-0.0103
EIF6 (UniProt P56537)	-0.689	-0.681	-2.24
EMC7 (UniProt Q9NPA0)	-0.402	-0.134	-0.101
CCDC6 (UniProt Q16204)	-0.497	-0.185	-0.505
MRGBP (UniProt Q9NV56)	0.386	-0.212	-0.45
IPPK (UniProt Q9H8X2)	0.199	0.487	0.0883
WWTR1 (UniProt Q9GZV5)	-0.0845	-0.0566	0.377
DHRS11 (UniProt Q6UWP2)	0.484	0.188	0.252
R3HCC1 (UniProt Q9Y3T6)	0.183	0.233	-0.101
FKBPL (UniProt Q9UIM3)	0.222	0.087	-0.0646
SCFD1 (UniProt Q8WVM8)	-0.771	-0.32	0.224
TXN2 (UniProt Q99757)	-0.504	0.00983	2.39
